# Measured values as given in patent US8653114B2, “O-cyclopropylcyclohexyl-carboxanilides and their use as fungicides” (priority 2010, dated 2014).
# Read-outs that look alike come from different tables or passages of the source.
# Key:
# [1] = log P by HPLC on reversed phase columns (EEC directive 79/831 Annex V.A8); assay type: physicochemical; conditions: for chromatographic logP: reversed phase HPLC columns
# Description: Measurement of log P values was performed according EEC directive 79/831 Annex V.A8 by HPLC (High Performance Liquid Chromatography) on reversed phase columns with the following methods:
# ^[b] measurement of LC-MS was done at pH 2.7 with 0.1% formic acid in water and with acetonitrile (contains 0.1% formic acid) as eluent with a linear gradient from 10% acetonitrle to 95% acetonitrile.
# Sphaerotheca fuliginea = experiment: Sphaerotheca test (cucumber) / preventive; assay type: in vivo; conditions: 500 ppm of active ingredient, evaluated 7 days after inoculation
# Description: (§1) Sphaerotheca Test (Cucumber)/Preventive [table] To produce a suitable preparation of active compound, 1 part by weight of active compound is mixed with the stated amounts of solvent and emulsifier, and the concentrate is diluted with water to the desired concentration. To test for preventive activity, young plants are sprayed with the preparation of active compound at the stated rate of application. One day after this treatment, the plants are inoculated with an aqueous spore suspension of Sphaerotheca fuliginea. Then the plants are placed in a greenhouse at approximately 23° C. and a relative atmospheric humidity of approximately 70%.
# Alternaria solani = experiment: Alternaria test (tomato) / preventive; assay type: in vivo; conditions: 500 ppm of active ingredient, evaluated 7 days after inoculation
# Description: as §1, with “Alternaria” for “Sphaerotheca”, “(Tomato)/Preventive” for “(Cucumber)/Preventive”, “Alternaria solani.” for “Sphaerotheca fuliginea. Then the plants are placed in a greenhouse at approximately 23° C. and a relative atmospheric humidity of approximately 70%.”
# Pyrenophora teres = experiment: Pyrenophora test (barley) / preventive; assay type: in vivo; conditions: 500 ppm of active ingredient, evaluated 7-9 days after inoculation
# Description: as §1, with “Pyrenophora” for “Sphaerotheca”, “(Barley)/Preventive” for “(Cucumber)/Preventive”, “Pyrenophora teres.” for “Sphaerotheca fuliginea. Then the plants are placed in a greenhouse at approximately 23° C. and a relative atmospheric humidity of approximately 70%.”
# Podosphaera leucotricha = experiment: Podosphaera test (apples) / preventive; assay type: in vivo; conditions: 100 ppm of active ingredient, evaluated 10 days after inoculation
# Description: Podosphaera Test (Apples)/Preventive [table] To produce a suitable preparation of active compound, 1 part by weight of active compound is mixed with the stated amounts of solvent and emulsifier, and the concentrate is diluted with water to the desired concentration. To test for preventive activity, young plants are sprayed with the preparation of active compound at the stated rate of application. After the spray coating has dried on, the plants are inoculated with an aqueous spore suspension of the causal agent of apple mildew (Podosphaera leucotricha). The plants are then placed in a greenhouse at approximately 23° C. and a relative atmospheric humidity of approximately 70%.
# Venturia inaequalis = experiment: Venturia test (apples) / preventive; assay type: in vivo; conditions: 100 ppm of active ingredient, evaluated 10 days after inoculation
# Description: Venturia Test (Apples)/Preventive [table] To produce a suitable preparation of active compound, 1 part by weight of active compound is mixed with the stated amounts of solvent and emulsifier, and the concentrate is diluted with water to the desired concentration. To test for preventive activity, young plants are sprayed with the preparation of active compound at the stated rate of application.
# [2] = system: Blumeria graminis f. sp. hordei; experiment: Blumeria test (barley) / preventive; assay type: in vivo; conditions: 500 ppm of active ingredient, evaluated 7 days after inoculation
# Description: (§2) Blumeria Test (Barley)/Preventive [table] To produce a suitable preparation of active compound, 1 part by weight of active compound or active compound combination is mixed with the stated amounts of solvent and emulsifier, and the concentrate is diluted with water to the desired concentration. To test for preventive activity, young plants are sprayed with the preparation of active compound or active compound combination at the stated rate of application. After the spray coating has been dried, the plants are dusted with spores of Blumeria graminis f. sp. hordei.
# Septoria tritici = experiment: Septoria tritici-test (wheat) / preventive; assay type: in vivo; conditions: 500 ppm of active ingredient, evaluated 21 days after inoculation
# Description: as §2, with “Septoria tritici-Test (Wheat)/Preventive” for “Blumeria Test (Barley)/Preventive”, “sprayed” for “dusted”, “a spore suspension” for “spores”, “Septoria tritici.” for “Blumeria graminis f. sp. hordei.”
# Puccinia triticina = experiment: Puccinia triticina-test (wheat) / preventive; assay type: in vivo; conditions: 500 ppm of active ingredient, evaluated 8 days after inoculation
# Description: as §2, with “Puccinia triticina-Test (Wheat)/Preventive” for “Blumeria Test (Barley)/Preventive”, “sprayed” for “dusted”, “a spore suspension” for “spores”, “Puccinia triticina.” for “Blumeria graminis f. sp. hordei.”
# [3] = system: Fusarium nivale (var. majus); experiment: Fusarium nivale (var. majus)-test (wheat) / preventive; assay type: in vivo; conditions: 500 ppm of active ingredient, evaluated 5 days after inoculation
# Description: as §2, with “Fusarium nivale (var. majus)-Test (Wheat)/Preventive” for “Blumeria Test (Barley)/Preventive”, “slightly injured by using a sandblast and afterwards they are sprayed” for “dusted”, “a conidia suspension” for “spores”, “Fusarium nivale (var. majus).” for “Blumeria graminis f. sp. hordei.”
Structure (SMILES),"chromatographic logP ([1]; pH 2.7, HPLC/LC-MS at pH 2.7, 0.1% formic acid in water / acetonitrile gradient, read-out: Log P[b])","chromatographic logP ([1]; pH 2.7, acid, product isolated with a purity of 87% LC-MS, read-out: log P (acid))",Eff. % (Sphaerotheca fuliginea) [%],Eff. % (Alternaria solani) [%],Eff. % (Pyrenophora teres) [%],Eff. % (Podosphaera leucotricha) [%],Eff. % (Venturia inaequalis) [%],Eff. % [2] [%],Eff. % (Septoria tritici) [%],Eff. % (Puccinia triticina) [%],Eff. % [3] [%],"Log P[b] ([1]; HPLC/LC-MS at pH 2.7, 0.1% formic acid in water / acetonitrile gradient)"
"Cn1nc(C(F)F)c(C(=O)NC2CCCCC2C2CC2C2CC2)c1F (single isomer, unassigned) [Example 1, N-{2-[1,1′-bi(cyclopropyl)-2-yl]cyclohexyl}-3-(difluoromethyl)-5-fluoro-1-methyl-1H-pyrazole-4-carboxamide]",4.02,4.02,100,100,100,100,100,100,90,100,100,
"Cn1nc(C(F)F)c(C(=O)NC2CCCCC2C2CC2C2CC2)c1F (single isomer, unassigned) [Example 2, N-{2-[1,1′-bi(cyclopropyl)-2-yl]cyclohexyl}-3-(difluoromethyl)-5-fluoro-1-methyl-1H-pyrazole-4-carboxamide]",,,100,100,100,100,100,100,90,100,100,3.84
